This is an account of results in patent US9079901B2, “Fused heterocyclic compounds as ion channel modulators” (Gilead Sciences, Inc., priority 2010, dated 2015).

The target in this test is wild-type human cardiac sodium channel, hNav1.5 (late sodium current) in HEK293 cells (Homo sapiens, UniProt Q14524). Kind of test: Late INa screening assay (automated whole-cell patch clamp, PatchXpress). The test is classed as cell-based. The conditions noted are these: HEK293, compound at 1 μM; late INa generated with 10 μM Tefluthrin (or 50 nM ATX II); HEK293 hNav1.5; read-out: Late INa 1 μM (percent block of late INa). The procedure: The late sodium current (Late INa) and peak sodium current (Peak INa) assays are performed on an automated electrophysiology platform, PatchXpress 7000A (MDS Analytical Technologies, Sunnyvale, Calif.), which uses the whole cell patch clamp technique to measure currents through the cell membrane of up to 16 cells at a time. The assay uses an HEK293 (human embryonic kidney) cell line heterologously expressing the wild-type human cardiac sodium channel, hNav1.5, purchased from Millipore (Billerica, Mass.). No beta subunits were coexpressed with the Na channel alpha subunit. Cells are maintained with standard tissue culture procedures and stable channel expression is maintained with 400 μg/ml Geneticin in the culture medium. Cells isolated for use on PatchXpress are incubated for 5 minutes in Versene 1× and then for 2 minutes in 0.0125% Trypsin-EDTA (both at 37° C.) to ensure that 80-90% of the cells are single and not part of a cell cluster. Experiments are carried out at 24-27° C.
Chain of wild-type human cardiac sodium channel, hNav1.5 (late sodium current) in HEK293 cells (Q14524 whole entry): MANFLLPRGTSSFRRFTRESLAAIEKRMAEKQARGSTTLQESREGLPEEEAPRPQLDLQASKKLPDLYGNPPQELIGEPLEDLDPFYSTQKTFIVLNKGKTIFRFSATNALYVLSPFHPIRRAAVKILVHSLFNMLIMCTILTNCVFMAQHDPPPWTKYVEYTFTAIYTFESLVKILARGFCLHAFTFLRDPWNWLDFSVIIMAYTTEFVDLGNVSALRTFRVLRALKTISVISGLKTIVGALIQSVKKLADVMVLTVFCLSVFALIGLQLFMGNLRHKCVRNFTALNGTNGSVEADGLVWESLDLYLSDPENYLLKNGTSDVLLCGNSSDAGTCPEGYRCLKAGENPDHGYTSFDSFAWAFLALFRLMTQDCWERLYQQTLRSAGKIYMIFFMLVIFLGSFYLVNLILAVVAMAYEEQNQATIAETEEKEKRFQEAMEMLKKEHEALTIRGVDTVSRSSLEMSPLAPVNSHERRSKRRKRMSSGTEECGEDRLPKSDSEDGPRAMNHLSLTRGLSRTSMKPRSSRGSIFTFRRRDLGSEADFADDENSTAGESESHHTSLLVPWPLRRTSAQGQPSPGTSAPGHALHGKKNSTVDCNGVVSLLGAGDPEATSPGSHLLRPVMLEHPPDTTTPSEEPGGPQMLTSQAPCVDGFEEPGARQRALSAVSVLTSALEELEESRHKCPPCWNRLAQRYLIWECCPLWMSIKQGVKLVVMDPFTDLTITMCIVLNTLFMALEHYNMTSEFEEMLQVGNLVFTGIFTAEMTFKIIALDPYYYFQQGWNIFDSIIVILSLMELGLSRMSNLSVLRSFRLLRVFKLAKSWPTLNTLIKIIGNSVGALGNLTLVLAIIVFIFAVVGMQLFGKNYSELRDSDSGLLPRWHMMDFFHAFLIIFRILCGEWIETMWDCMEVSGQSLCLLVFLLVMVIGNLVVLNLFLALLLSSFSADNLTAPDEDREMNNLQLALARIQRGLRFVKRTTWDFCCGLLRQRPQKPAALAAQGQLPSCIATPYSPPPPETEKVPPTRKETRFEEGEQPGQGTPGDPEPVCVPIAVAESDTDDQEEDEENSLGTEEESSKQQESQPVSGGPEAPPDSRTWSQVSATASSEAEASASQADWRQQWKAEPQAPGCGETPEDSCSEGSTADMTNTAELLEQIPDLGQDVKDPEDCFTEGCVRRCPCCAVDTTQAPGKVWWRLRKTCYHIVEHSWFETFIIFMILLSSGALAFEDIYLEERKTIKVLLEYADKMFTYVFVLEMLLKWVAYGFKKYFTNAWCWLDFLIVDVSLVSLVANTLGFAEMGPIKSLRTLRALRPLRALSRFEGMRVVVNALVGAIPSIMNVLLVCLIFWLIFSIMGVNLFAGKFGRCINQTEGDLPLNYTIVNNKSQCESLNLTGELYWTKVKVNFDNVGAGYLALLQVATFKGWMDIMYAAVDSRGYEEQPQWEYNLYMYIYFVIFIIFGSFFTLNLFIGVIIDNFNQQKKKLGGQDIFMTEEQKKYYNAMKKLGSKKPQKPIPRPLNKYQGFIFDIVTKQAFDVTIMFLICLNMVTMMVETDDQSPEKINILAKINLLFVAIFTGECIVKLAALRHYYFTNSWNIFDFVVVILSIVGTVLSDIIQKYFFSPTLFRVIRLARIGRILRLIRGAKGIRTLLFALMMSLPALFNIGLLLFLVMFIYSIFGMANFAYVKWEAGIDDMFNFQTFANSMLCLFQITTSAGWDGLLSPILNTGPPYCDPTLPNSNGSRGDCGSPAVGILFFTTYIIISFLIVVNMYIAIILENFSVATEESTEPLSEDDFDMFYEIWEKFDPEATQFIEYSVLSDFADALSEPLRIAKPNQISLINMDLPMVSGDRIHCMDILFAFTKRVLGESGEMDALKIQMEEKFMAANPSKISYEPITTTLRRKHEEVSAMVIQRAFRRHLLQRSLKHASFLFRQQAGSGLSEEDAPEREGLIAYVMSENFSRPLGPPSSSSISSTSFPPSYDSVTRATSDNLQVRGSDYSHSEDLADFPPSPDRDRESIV
For both the Late INa and Peak INa assays, series resistance compensation is set to 50% and whole-cell compensation is performed automatically. Currents are low-pass filtered at 10 kHz and digitized at 31.25 kHz. Currents through open sodium channels are automatically recorded and stored in the DataXpress2 database (MDS Analytical Technologies, Sunnyvale, Calif.). Analysis is performed using DataXpress2 analysis software and data are compiled in Excel.
Compound stocks are routinely made in glass vials to 10 mM in dimethyl sulfoxide (DMSO). In some cases, when compounds are not soluble in DMSO, they are made in 100% ethanol. Stocks are sonicated as necessary. The extracellular solution for screening Late INa is composed of: 140 mM NaCl, 4 mM KCl, 1.8 mM CaCl2, 0.75 mM MgCl2, and 5 mM HEPES with pH adjusted to 7.4 using NaOH. The extracellular solution for screening Peak INa is composed of: 20 mM NaCl, 120 mM N-methyl-D glucamine, 4 mM KCl, 1.8 mM CaCl2, 0.75 mM MgCl2, and 5 mM HEPES with pH adjusted to 7.4 using HCl. The intracellular solution used to perfuse the inside of the cells for both the Late INa and Peak INa assays contains: 120 mM CsF, 20 mM CsCl, 5 mM EGTA, 5 mM HEPES and pH adjusted to 7.4 with CsOH. Compounds are diluted in extracellular solution to 10 μM in glass vials and then transferred to glass well plates before robotic addition to the cells. The 0Na extracellular solution used at the end of each experiment for the Late INa and Peak INa assays to measure baseline current contains: 140 mM N-methyl-D-glucamine; 4 mM KCl; 1.8 mM CaCl2; 0.75 mM MgCl2; 5 mM HEPES and pH was adjusted to 7.4 with HCl.
For the Late INa assay, sodium channels are activated every 10 seconds (0.1 Hz) by depolarizing the cell membrane to −20 mV for 250 milliseconds (ms) from a holding potential of −120 mV. In response to a −20 mV voltage step, typical Nav1.5 sodium currents activate rapidly to a peak negative current and then inactivate nearly completely within 3-4 ms.
All compounds are tested to determine their activity in blocking the late sodium current. Late INa current is generated by adding 10 μM Tefluthrin (pyrethroid) to the extracellular solution while recording Na currents. For some experiments, 50 nM ATX II (sea anemone toxin), another late INa activator, was used to generate the late component. Both activators generate late components that are large enough that block of the late component by compounds can be measured easily. For the purposes of the screening, late INa is defined as the mean current between 225 ms and 250 ms after stepping to −20 mV to activate Na channels. After establishing the whole cell recording configuration, late INa activators are added to each well 4 times over a 16-17 minute period so that the late component of the Na current reaches a stable value. Compounds are then added (typically at 10 μM), in the presence of late INa activator, with 3 additions over the course of 7 or 8 minutes. […]

With `Cc1noc(Cn2nc3ccc(-c4ccc(OC(F)(F)F)cc4)cn3c2=O)n1` [compound 1, 2-((3-methyl-1,2,4-oxadiazol-5-yl)methyl)-6-(4-(trifluoromethoxy)phenyl)-[1,2,4]triazolo[4,3-a]pyridin-3(2H)-one], the inhibition at 1 µM was 27.5%. Regarding `Cc1nonc1Cn1nc2ccc(-c3ccc(OC(F)(F)F)cc3)cn2c1=O` [compound 2, 2-((4-methyl-1,2,5-oxadiazol-3-yl)methyl)-6-(4-(trifluoromethoxy)phenyl)-[1,2,4]triazolo[4,3-a]pyridin-3(2H)-one], the inhibition at 1 µM is 41.3%. For `Cc1nc(Cn2nc3ccc(-c4ccc(OC(F)(F)F)cc4)cn3c2=O)no1` [compound 3, 2-((5-methyl-1,2,4-oxadiazol-3-yl)methyl)-6-(4-(trifluoromethoxy)phenyl)-[1,2,4]triazolo[4,3-a]pyridin-3(2H)-one], the inhibition at 1 µM worked out at 29.3%. Under `COc1ccccc1OCC(O)Cn1nc2ccc(-c3ccc(OC(F)(F)F)cc3)cn2c1=O` (stereo not shown) [compound 4, 2-(2-hydroxy-3-(2-methoxyphenoxy)propyl)-6-(4-(trifluoromethoxy)phenyl)-[1,2,4]triazolo[4,3-a]pyridin-3(2H)-one] stands 20.8%; under `Cc1cc(Cn2nc3ccc(-c4ccc(OC(F)(F)F)cc4)cn3c2=O)no1` [compound 5, 2-((5-methylisoxazol-3-yl)methyl)-6-(4-(trifluoromethoxy)phenyl)-[1,2,4]triazolo[4,3-a]pyridin-3(2H)-one], 28.3%; under `Cc1noc(C)c1Cn1nc2ccc(-c3ccc(OC(F)(F)F)cc3)cn2c1=O` [compound 6, 2-((3,5-dimethylisoxazol-4-yl)methyl)-6-(4-(trifluoromethoxy)phenyl)-[1,2,4]triazolo[4,3-a]pyridin-3(2H)-one], 15.2%. On to `O=c1n(Cc2noc(-c3cccc(C(F)(F)F)c3)n2)nc2ccc(-c3ccc(OC(F)(F)F)cc3)cn12` [compound 7, 6-(4-(trifluoromethoxy)phenyl)-2-((5-(3-(trifluoromethyl)phenyl)-1,2,4-oxadiazol-3-yl)methyl)-[1,2,4]triazolo[4,3-a]pyridin-3(2H)-one], for which the inhibition at 1 µM is 24.5%. On to `Cc1nc(-c2cccc(Cn3nc4ccc(-c5ccc(OC(F)(F)F)cc5)cn4c3=O)c2)no1` [compound 8, 2-(3-(5-methyl-1,2,4-oxadiazol-3-yl)benzyl)-6-(4-(trifluoromethoxy)phenyl)-[1,2,4]triazolo[4,3-a]pyridin-3(2H)-one], for which the inhibition at 1 µM amounted to 16.3%.

Take `O=c1n(Cc2nc(-c3c(Cl)cccc3Cl)no2)nc2ccc(-c3ccc(OC(F)(F)F)cc3)cn12` [compound 9, 2-((3-(2,6-dichlorophenyl)-1,2,4-oxadiazol-5-yl)methyl)-6-(4-(trifluoromethoxy)phenyl)-[1,2,4]triazolo[4,3-a]pyridin-3(2H)-one]: the inhibition at 1 µM amounted to 29.8%. Consider `O=c1n(Cc2ccc3nonc3c2)nc2ccc(-c3ccc(OC(F)(F)F)cc3)cn12` [compound 10, 2-(benzo[c][1,2,5]oxadiazol-5-ylmethyl)-6-(4-(trifluoromethoxy)phenyl)-[1,2,4]triazolo[4,3-a]pyridin-3(2H)-one], for which the inhibition at 1 µM worked out at 16.9%.

On to `COc1ccccc1-c1nc(Cn2nc3ccc(-c4ccc(OC(F)(F)F)cc4)cn3c2=O)no1` [compound 11, 2-((5-(2-methoxyphenyl)-1,2,4-oxadiazol-3-yl)methyl)-6-(4-(trifluoromethoxy)phenyl)-[1,2,4]triazolo[4,3-a]pyridin-3(2H)-one], for which the inhibition at 1 µM is 22%.

For `O=c1n(Cc2ccc(OC(F)(F)F)cc2)nc2ccc(-c3ccc(OC(F)(F)F)cc3)cn12` [compound 12, 2-(4-(trifluoromethoxy)benzyl)-6-(4-(trifluoromethoxy)phenyl)-[1,2,4]triazolo[4,3-a]pyridin-3(2H)-one], the inhibition at 1 µM is 11.1%. The value for `O=c1n(Cc2ccc3ccccc3n2)nc2ccc(-c3ccc(OC(F)(F)F)cc3)cn12` [compound 13, 2-(quinolin-2-ylmethyl)-6-(4-(trifluoromethoxy)phenyl)-[1,2,4]triazolo[4,3-a]pyridin-3(2H)-one] was 24.6%.
